Values of other authors, collected in US10035944B2, “Using synthetic acid compositions as alternatives to conventional acids in the oil and gas industry” (priority 2014, dated 2018).

Conditions: death in 2-3 minutes

Cl [Hydrogen chloride gas, Hydrogen chloride]
level at which death can occur: 1300-2000 ppm
